Measurements: ChEMBL document CHEMBL1145313, “Identification of potent and highly selective chiral tri-amine and tetra-amine mu opioid receptors ligands: an example of lead optimization using mixture-based libraries” (Bioorg Med Chem Lett, 2006)

How the values were obtained:
[1] = molecular target: Mu-type opioid receptor (Cavia porcellus) (UniProt P97266); test: Activity at mu opioid receptor in guinea-pig ileum assay; format: functional, tissue-based; settings: filed as antagonist
[2] = molecular target: Delta-type opioid receptor (Homo sapiens, UniProt P41143); test: Displacement of [3H]DPDE from delta opioid receptor
Sequence of Delta-type opioid receptor (P41143 whole entry): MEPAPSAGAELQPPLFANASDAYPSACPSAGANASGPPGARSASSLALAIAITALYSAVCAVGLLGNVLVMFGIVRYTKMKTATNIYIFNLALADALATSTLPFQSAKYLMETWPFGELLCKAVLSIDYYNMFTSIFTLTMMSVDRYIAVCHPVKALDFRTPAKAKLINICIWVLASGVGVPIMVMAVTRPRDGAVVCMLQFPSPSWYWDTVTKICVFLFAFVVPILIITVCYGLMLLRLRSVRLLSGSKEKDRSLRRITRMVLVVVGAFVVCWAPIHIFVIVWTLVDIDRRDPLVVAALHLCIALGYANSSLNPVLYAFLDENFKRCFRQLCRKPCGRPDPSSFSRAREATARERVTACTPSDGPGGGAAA

Mu-type opioid receptor [3] = molecular target: Mu-type opioid receptor (Rattus norvegicus, UniProt P33535); test: Displacement of [3H]DAMGO from mu opioid receptor in rat brain homogenate; format: tissue-based
Sequence of Mu-type opioid receptor (Rattus norvegicus, UniProt P33535) (P33535 whole entry): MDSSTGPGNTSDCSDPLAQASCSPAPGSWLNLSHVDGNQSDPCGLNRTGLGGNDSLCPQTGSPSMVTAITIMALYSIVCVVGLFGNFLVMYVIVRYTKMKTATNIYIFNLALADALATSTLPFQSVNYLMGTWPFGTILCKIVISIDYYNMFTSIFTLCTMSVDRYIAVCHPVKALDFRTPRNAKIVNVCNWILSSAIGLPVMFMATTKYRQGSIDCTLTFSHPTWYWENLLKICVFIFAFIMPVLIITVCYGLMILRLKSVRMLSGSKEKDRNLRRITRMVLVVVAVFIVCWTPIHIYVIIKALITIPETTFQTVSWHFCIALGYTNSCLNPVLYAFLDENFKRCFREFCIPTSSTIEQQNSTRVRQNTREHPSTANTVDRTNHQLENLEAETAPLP

[4] = molecular target: Kappa-type opioid receptor (Homo sapiens, UniProt P41145); test: Displacement of [3H]U-69593 from kappa opioid receptor
Sequence of Kappa-type opioid receptor (P41145 whole entry): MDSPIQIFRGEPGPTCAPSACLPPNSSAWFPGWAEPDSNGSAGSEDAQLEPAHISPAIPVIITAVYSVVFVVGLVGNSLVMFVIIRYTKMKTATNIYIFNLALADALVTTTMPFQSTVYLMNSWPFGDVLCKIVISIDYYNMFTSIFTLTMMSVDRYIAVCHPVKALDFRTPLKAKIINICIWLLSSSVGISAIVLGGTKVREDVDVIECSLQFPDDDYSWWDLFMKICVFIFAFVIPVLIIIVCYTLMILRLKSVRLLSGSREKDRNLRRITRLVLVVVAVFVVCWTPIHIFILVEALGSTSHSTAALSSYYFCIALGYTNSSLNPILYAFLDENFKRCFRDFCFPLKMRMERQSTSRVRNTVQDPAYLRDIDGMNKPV

Mu-type opioid receptor [5] = molecular target: Mu-type opioid receptor (Cavia porcellus, UniProt P97266); test: Antagonist activity against mu opioid receptor in guinea-pig ileum assay; format: functional, tissue-based
Sequence of Mu-type opioid receptor (Cavia porcellus, UniProt P97266) (P97266 whole entry): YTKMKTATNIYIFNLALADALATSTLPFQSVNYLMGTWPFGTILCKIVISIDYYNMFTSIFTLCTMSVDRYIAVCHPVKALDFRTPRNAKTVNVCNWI

Sequence of Mu-type opioid receptor (Cavia porcellus) (P97266 whole entry): as above

Compound | Activity [1] | IC50 [2] [µM] | IC50 (Mu-type opioid receptor [3]) [µM] | IC50 [4] [µM] | IC50 (Mu-type opioid receptor [5]) [µM]
CNC[C@@H](Cc1ccccc1)N(C)C[C@H](Cc1ccc(O)cc1)N(C)C[C@@H](Cc1ccc(O)cc1)N(C)C | Antagonist | 11.3 | 0.958 | 15.6 | 
CNC[C@H](Cc1ccccc1)N(C)C[C@H](Cc1ccc(O)cc1)N(C)C[C@@H](Cc1ccc(O)cc1)N(C)C | Antagonist | 9.05 | 0.662 | 10.5 | 
CNC[C@@H]1CCCN1C[C@H](Cc1ccccc1)N(C)C[C@H](Cc1ccc(O)cc1)N(C)C[C@@H](N)Cc1ccc(O)cc1 | Antagonist |  |  |  | 0.013
CNC[C@@H]1CCCN1C[C@H](Cc1ccccc1)N(C)C[C@H](Cc1ccc(O)cc1)N(C)C[C@H](Cc1ccc(O)cc1)NC |  |  |  |  | 0.002
CNC[C@@H](Cc1ccccc1)N(C)C[C@@H](Cc1ccc(O)cc1)N(C)C[C@@H](Cc1ccc(O)cc1)N(C)C | Antagonist | 4.97 | 0.835 | 8.76 | 
N[C@@H](Cc1ccc(O)cc1)CN(Cc1ccccc1)[C@@H](Cc1ccc(O)cc1)CN(Cc1ccccc1)[C@@H](Cc1ccccc1)CN1CCC[C@H]1CNCc1ccccc1 |  |  |  |  | 4.46
CNC[C@H](Cc1ccccc1)N(C)C[C@H](Cc1ccc(O)cc1)N(C)C[C@H](Cc1ccc(O)cc1)N(C)C | Antagonist | 4.89 | 0.0005 | 1.05 | 
CNC[C@@H](Cc1ccccc1)N(C)C[C@@H](Cc1ccc(O)cc1)N(C)C[C@H](Cc1ccc(O)cc1)N(C)C | Antagonist | 17 | 0.876 | 22.4 | 
NC[C@@H]1CCCN1C[C@H](Cc1ccccc1)NC[C@H](Cc1ccc(O)cc1)NC[C@@H](N)Cc1ccc(O)cc1 |  |  |  |  | 0.006
CCNC[C@@H]1CCCN1C[C@H](Cc1ccccc1)N(CC)C[C@H](Cc1ccc(O)cc1)N(CC)C[C@@H](N)Cc1ccc(O)cc1 |  |  |  |  | 0.045
CNC[C@@H](Cc1ccccc1)N(C)C[C@H](Cc1ccc(O)cc1)N(C)C[C@@H](N)Cc1ccc(O)cc1 | Antagonist | 8.53 | 0.037 | 1.45 | 
N[C@@H](Cc1ccc(O)cc1)CN(Cc1ccc2ccccc2c1)[C@@H](Cc1ccc(O)cc1)CN(Cc1ccc2ccccc2c1)[C@@H](Cc1ccccc1)CN1CCC[C@H]1CNCc1ccc2ccccc2c1 |  |  |  |  | 18.6
CNC[C@@H]1CCCN1C[C@H](Cc1ccccc1)N(C)C[C@H](Cc1ccc(O)cc1)N(C)C[C@H](Cc1ccc(O)cc1)N(C)C |  |  |  |  | 0.008
CNC[C@H](Cc1ccccc1)N(C)C[C@@H](Cc1ccc(O)cc1)N(C)C[C@@H](Cc1ccc(O)cc1)N(C)C | Antagonist | 17.8 | 1.5 | 6.06 | 
CNC[C@H](Cc1ccccc1)N(C)C[C@@H](Cc1ccc(O)cc1)N(C)C[C@@H](N)Cc1ccc(O)cc1 | Antagonist | 48.2 | 0.339 | 22.5 | 
CNC[C@H](Cc1ccc(O)cc1)N(Cc1ccccc1)C[C@H](Cc1ccc(O)cc1)N(C)C |  | 56.7 | 1.28 | 10.6 | 
